The source of these data is ChEMBL document CHEMBL3526118, “Combination of GSH trapping and time-dependent inhibition assays as a predictive method of drugs generating highly reactive metabolites” (Drug Metab Dispos, 2011).

Data set [1] deals with Liver microsome. Briefly: Covalent binding in human liver microsomes measured per mg of protein using radiolabelled compound at 10 uM after 1 hr incubation by liquid scintillation counting. A general note: Liver microsomes are a subcellular fraction often used to study metabolism.
Data set [2] concerns Liver microsome. Briefly: Metabolic activation in human liver microsomes assessed as [3H]GSH adduct formation rate measured per mg of protein at 100 uM by [3H]GSH trapping assay.
The target in a further data set is T1, CYP1A2 (Homo sapiens, UniProt P05177).
T1 sequence (P05177 whole entry): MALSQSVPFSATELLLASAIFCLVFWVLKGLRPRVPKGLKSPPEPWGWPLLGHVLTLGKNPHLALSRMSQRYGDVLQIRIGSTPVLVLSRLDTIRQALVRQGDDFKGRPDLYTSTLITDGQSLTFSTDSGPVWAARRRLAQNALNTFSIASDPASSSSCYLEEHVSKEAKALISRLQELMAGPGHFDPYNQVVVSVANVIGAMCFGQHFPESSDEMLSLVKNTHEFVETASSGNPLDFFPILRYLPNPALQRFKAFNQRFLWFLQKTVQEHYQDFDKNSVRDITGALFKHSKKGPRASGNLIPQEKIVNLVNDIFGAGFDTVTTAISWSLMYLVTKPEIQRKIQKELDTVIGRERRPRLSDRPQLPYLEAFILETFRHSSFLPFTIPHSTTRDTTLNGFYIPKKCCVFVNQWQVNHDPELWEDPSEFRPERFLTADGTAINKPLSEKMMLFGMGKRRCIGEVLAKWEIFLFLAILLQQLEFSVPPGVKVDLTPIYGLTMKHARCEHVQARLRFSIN
Briefly: in vitro.

A further data set concerns the target T2, CYP2B6 (Homo sapiens, UniProt P20813).
T2 sequence (P20813 whole entry): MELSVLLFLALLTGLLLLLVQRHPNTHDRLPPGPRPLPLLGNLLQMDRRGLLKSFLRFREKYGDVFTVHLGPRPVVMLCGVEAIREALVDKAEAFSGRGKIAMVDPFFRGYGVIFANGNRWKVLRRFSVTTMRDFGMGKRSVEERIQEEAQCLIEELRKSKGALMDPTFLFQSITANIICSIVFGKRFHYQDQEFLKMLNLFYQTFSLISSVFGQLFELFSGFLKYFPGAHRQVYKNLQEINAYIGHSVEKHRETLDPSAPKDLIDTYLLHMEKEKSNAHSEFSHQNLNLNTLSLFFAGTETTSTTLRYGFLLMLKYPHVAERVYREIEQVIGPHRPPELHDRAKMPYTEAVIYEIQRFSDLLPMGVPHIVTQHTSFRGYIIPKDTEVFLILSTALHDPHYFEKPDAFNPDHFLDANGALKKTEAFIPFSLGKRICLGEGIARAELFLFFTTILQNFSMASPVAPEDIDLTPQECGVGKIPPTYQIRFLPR
Briefly: in vitro.

The target of another data set is CYP2C9 (Homo sapiens, UniProt P11712). Briefly: in vitro.
In another data set the target is CYP2C19 (Homo sapiens, UniProt P33261). Briefly: in vitro.
In another data set the target is CYP2D6 (Homo sapiens, UniProt P10635). Briefly: in vitro.
Another data set deals with CYP3A4 (Homo sapiens, UniProt P08684). Briefly: in vitro.
Another data set concerns the target T3, CYP2C8 (Homo sapiens, UniProt P10632).
T3 sequence (P10632 whole entry): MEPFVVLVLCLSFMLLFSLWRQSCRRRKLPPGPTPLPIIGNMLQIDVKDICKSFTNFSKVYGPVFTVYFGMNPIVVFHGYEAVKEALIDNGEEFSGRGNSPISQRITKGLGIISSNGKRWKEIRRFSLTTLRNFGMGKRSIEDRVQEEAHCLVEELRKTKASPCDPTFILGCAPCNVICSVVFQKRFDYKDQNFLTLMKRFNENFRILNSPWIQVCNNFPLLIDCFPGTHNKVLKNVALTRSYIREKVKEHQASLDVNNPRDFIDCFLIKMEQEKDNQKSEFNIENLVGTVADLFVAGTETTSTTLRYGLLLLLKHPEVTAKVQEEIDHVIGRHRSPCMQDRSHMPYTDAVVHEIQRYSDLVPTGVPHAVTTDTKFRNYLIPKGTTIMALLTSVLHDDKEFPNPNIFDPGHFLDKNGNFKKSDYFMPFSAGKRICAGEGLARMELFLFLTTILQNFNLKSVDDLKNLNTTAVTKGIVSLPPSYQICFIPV
Briefly: in vitro.

Data set [3] is described as follows: Intrinsic clearance for reactive metabolites formation per mg of protein based on cytochrome P450 (unknown origin) inactivation rate by TDI assay. Particulars: human.
Data set [4] can be described thus: Intrinsic clearance for reactive metabolites formation assessed as summation of [3H]GSH adduct formation rate-based reactive metabolites formation and cytochrome P450 (unknown origin) inactivation rate-based reactive metabolites formation. Particulars: human.

Chain of CYP3A4 (P08684 whole entry): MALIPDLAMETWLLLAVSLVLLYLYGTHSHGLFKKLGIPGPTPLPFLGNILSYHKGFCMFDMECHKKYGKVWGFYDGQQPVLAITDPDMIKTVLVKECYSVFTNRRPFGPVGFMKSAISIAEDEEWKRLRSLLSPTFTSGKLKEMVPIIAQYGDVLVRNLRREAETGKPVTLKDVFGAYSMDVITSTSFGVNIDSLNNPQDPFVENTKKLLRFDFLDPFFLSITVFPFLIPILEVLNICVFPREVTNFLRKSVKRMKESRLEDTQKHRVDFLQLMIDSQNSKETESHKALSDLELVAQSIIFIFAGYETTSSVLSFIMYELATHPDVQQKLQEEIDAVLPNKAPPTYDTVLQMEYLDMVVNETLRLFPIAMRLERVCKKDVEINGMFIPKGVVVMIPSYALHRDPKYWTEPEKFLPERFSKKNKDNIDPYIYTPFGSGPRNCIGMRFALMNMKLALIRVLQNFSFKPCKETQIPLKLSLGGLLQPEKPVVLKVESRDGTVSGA
Chain of CYP2C9 (P11712 whole entry): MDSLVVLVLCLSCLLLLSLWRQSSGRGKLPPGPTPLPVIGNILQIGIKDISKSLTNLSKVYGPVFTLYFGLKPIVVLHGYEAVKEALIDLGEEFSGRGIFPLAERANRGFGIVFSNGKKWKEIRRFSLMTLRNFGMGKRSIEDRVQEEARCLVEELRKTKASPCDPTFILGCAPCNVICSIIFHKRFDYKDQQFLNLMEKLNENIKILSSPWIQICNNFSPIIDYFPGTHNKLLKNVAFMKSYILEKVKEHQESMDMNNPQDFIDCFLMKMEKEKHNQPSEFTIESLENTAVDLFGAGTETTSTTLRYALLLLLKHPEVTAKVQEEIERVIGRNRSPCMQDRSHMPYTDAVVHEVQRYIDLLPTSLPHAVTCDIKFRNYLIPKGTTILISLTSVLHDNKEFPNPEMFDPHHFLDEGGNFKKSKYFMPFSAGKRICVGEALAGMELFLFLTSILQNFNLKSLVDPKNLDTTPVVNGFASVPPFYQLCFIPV
Chain of CYP2D6 (P10635 whole entry): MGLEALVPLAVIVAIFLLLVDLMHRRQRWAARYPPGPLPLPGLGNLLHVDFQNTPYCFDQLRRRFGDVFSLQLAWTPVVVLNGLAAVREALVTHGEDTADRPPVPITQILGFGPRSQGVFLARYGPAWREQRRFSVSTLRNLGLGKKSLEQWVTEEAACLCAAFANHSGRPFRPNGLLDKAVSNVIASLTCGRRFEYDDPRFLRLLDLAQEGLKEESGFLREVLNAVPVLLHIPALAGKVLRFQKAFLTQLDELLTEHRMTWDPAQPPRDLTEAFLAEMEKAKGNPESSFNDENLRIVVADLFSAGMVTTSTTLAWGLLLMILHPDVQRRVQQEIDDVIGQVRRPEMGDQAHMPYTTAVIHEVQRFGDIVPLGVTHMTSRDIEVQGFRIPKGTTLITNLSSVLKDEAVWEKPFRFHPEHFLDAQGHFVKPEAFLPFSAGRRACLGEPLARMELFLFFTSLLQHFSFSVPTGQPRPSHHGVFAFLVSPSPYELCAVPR
Chain of CYP2C19 (P33261 whole entry): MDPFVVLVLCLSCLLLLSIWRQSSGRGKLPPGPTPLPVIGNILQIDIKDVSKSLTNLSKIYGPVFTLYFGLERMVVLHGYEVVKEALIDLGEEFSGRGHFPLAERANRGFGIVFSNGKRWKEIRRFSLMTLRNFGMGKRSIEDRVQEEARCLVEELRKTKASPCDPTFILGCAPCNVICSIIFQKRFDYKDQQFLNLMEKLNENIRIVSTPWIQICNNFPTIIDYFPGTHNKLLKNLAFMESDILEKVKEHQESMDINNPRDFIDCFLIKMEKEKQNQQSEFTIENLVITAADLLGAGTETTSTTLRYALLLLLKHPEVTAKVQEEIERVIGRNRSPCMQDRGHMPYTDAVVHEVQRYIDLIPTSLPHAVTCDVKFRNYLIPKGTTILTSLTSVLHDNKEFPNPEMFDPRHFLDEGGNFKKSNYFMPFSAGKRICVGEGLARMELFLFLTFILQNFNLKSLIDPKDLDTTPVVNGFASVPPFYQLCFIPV

A word on the inhibition: it is the drop in the measured response relative to a control, in per cent. Take `CCCCC(=O)N(Cc1ccc(-c2ccccc2-c2nnn[nH]2)cc1)[C@H](C(=O)O)C(C)C`: the PB with Liver microsome [1] was determined as 1.4 pmol. Moreover, in the data set on Liver microsome [2], the Drug metabolism entry was “metabolite_not_detected”. In addition, the inhibition at 100 µM against CYP1A2, against CYP2B6, on CYP2C9, against CYP2C19 (human liver microsomes), against CYP2D6 and at CYP3A4 was less than 10% in each case. Moreover, the inhibition at 100 µM against CYP2C8 was less than 10%.

As for `COc1ccc(CCN(C)CCCC(C#N)(c2ccc(OC)c(OC)c2)C(C)C)cc1OC` (stereo unspecified), the inhibition at 100 µM was less than 10% against CYP1A2; 10% against CYP2B6; less than 10% at CYP2C9; less than 10% on CYP2C19 (microsomes); less than 10% against CYP2D6; 51% on CYP3A4. The inhibition at 100 µM against CYP2C8 was less than 10%.

With `Cc1c(N(C)C)c(=O)n(-c2ccccc2)n1C` [AMINOPYRINE], the PB with Liver microsome [1] was 30.9 pmol. Moreover, the Drug metabolism entry in the data set with Liver microsome [2] is “metabolite_not_detected”. The inhibition at 100 µM against CYP1A2, on CYP2B6, against CYP2C9, at CYP2C19 (microsomes), on CYP2D6 and on CYP3A4 was less than 10% in each case. At CYP2C8, this molecule came in with an inhibition at 100 µM of less than 10%.

In the case of `CC(C)c1c(C(=O)Nc2ccccc2)c(-c2ccccc2)c(-c2ccc(F)cc2)n1CC[C@@H](O)C[C@@H](O)CC(=O)O` [ATORVASTATIN], the PB in the data set with Liver microsome [1] came to 352.3 pmol. Moreover, in the data set with Liver microsome [2], the Drug metabolism was found to be 12.7 pmol/min. Besides, the inhibition at 100 µM on CYP2B6 and against CYP2C8 was less than 10% throughout.

Molecule `Cn1c(=O)c2c(ncn2C)n(C)c1=O` [CAFFEINE] displayed a PB in the data set on Liver microsome [1] of 9.9 pmol. The Drug metabolism entry with Liver microsome [2] is on record as “metabolite_not_detected”. Also, the inhibition at 100 µM on CYP1A2, at CYP2B6, against CYP2C9, on CYP2C19 (human liver microsomes), against CYP2D6 and at CYP3A4 was less than 10% each time. Also, at CYP2C8, the inhibition at 100 µM was less than 10%.

Regarding `CN1CCN(C2=Nc3cc(Cl)ccc3Nc3ccccc32)CC1` [CLOZAPINE], the inhibition at 100 µM against CYP1A2 was 12%; at CYP2B6 it was less than 10%; against CYP2C9, less than 10%; against CYP2D6, less than 10%; at CYP2C8, less than 10%.

In turn, `COc1cc2c(cc1OC)C(=O)C(CC1CCN(Cc3ccccc3)CC1)C2` (stereo unspecified) [DONEPEZIL] came in with a PB in the data set with Liver microsome [1] of 29.7 pmol. Further, the Drug metabolism entry with Liver microsome [2] was “metabolite_not_detected”.

Turning to `NS(=O)(=O)c1cc(C(=O)O)c(NCc2ccco2)cc1Cl` [FUROSEMIDE], the inhibition at 100 µM against CYP2B6 and at CYP2C8 was less than 10% in each case.

Regarding `CN(C)CCCN1c2ccccc2CCc2ccccc21` [IMIPRAMINE], the inhibition at 100 µM at CYP1A2, against CYP2B6, on CYP2C9, on CYP2D6, on CYP3A4 and on CYP2C8 was less than 10% in each case.

On to `C[C@H]1COc2c(N3CCN(C)CC3)c(F)cc3c(=O)c(C(=O)O)cn1c23.C[C@H]1COc2c(N3CCN(C)CC3)c(F)cc3c(=O)c(C(=O)O)cn1c23.O` [LEVOFLOXACIN], for which, in the data set on Liver microsome [2], the Drug metabolism result is “metabolite_not_detected”. For the same molecule, the inhibition at 100 µM at CYP1A2, against CYP2B6, against CYP2C9, against CYP2C19 (human liver microsomes), at CYP2D6 and at CYP2C8 was less than 10% in each case.

`CCCc1nc(C(C)(C)O)c(C(=O)O)n1Cc1ccc(-c2ccccc2-c2nnn[nH]2)cc1` [OLMESARTAN] returned a PB with Liver microsome [1] of 3.4 pmol. In addition, in the data set on Liver microsome [2], the Drug metabolism entry is “metabolite_not_detected”. Also, the inhibition at 100 µM on CYP1A2, on CYP2B6, at CYP2C9, against CYP2C19 (human liver microsomes), against CYP2D6 and at CYP3A4 was less than 10% throughout. The molecule further showed an inhibition at 100 µM against CYP2C8 of less than 10%.

`CC[C@H](C)C(=O)O[C@H]1C[C@H](O)C=C2C=C[C@H](C)[C@H](CC[C@@H](O)C[C@@H](O)CC(=O)O)[C@H]21` [PRAVASTATIN] gave a PB in the data set with Liver microsome [1] of 3.7 pmol. Further, in the data set on Liver microsome [2], the Drug metabolism result is “metabolite_not_detected”. The inhibition at 100 µM on CYP1A2, at CYP2B6, at CYP2C9, at CYP2C19 (microsomes), on CYP2D6 and on CYP3A4 was less than 10% each time. The inhibition at 100 µM at CYP2C8 is less than 10%.

The molecule `CCN(CC)CCNC(=O)c1ccc(N)cc1` [PROCAINAMIDE] had a PB with Liver microsome [1] of 5.1 pmol. Also, the Drug metabolism in the data set on Liver microsome [2] was 41.3 pmol/min. Besides, the inhibition at 100 µM against CYP1A2, at CYP2B6, on CYP2C9, against CYP2D6, at CYP3A4 and at CYP2C8 was less than 10% in each case.

`CC(C)NCC(O)COc1cccc2ccccc12` (stereo unspecified) [PROPRANOLOL]: the clearance in data set [3] was determined as 0.004 µL/min/mg; in data set [4] it was 0.031 µL/min/mg. Further, the inhibition at 100 µM is 25% against CYP1A2; less than 10% on CYP2B6; less than 10% on CYP2C9; less than 10% at CYP2C19 (microsomes); less than 10% at CYP2D6; less than 10% on CYP3A4. On CYP2C8, this molecule showed an inhibition at 100 µM of less than 10%.

Regarding `CC(C)c1nc(CN(C)C(=O)N[C@H](C(=O)N[C@@H](Cc2ccccc2)C[C@H](O)[C@H](Cc2ccccc2)NC(=O)OCc2cncs2)C(C)C)cs1` [RITONAVIR], in the data set on Liver microsome [1], the PB stood at 253.3 pmol. Moreover, the Drug metabolism entry with Liver microsome [2] is on record as “metabolite_not_detected”. For the same molecule, the clearance in data set [3] and in data set [4] was 3.55 µL/min/mg throughout.

Consider `Cc1cc(NS(=O)(=O)c2ccc(N)cc2)no1` [SULFAMETHOXAZOLE], for which the inhibition at 100 µM at CYP2B6 and on CYP2C8 was less than 10% each time.

On to `CCCC(CCC)C(=O)O` [VALPROIC ACID], for which the inhibition at 100 µM against CYP1A2, against CYP2B6, against CYP2C9, at CYP2D6, against CYP3A4 and against CYP2C8 was less than 10% throughout.

In the data set on Liver microsome [1], `Cc1cc(CC(=O)O)n(C)c1C(=O)c1ccc(Cl)cc1` [ZOMEPIRAC] had a PB of 6.4 pmol. The Drug metabolism entry in the data set on Liver microsome [2] is listed as “metabolite_not_detected”. Also, the inhibition at 100 µM against CYP1A2, against CYP2B6, against CYP2C9, at CYP2C19 (microsomes), against CYP2D6 and on CYP3A4 was less than 10% in each case. Also, on CYP2C8, the inhibition at 100 µM was less than 10%.
